Values of other authors in publication PMC13335693, “Discovery of a Potent Fluorescence Polarization Probe for Identifying USP1 Allosteric Inhibitors” (Advanced Science, 2026).

Details: stated for compound 4 as known drawback; no reference given

- half-life in mouse liver microsomes (MLM): 15 min
Structure (SMILES): Cc1cnc(-c2ccccc2C(C)C)nc1NCc1ccc(-n2ccnn2)cc1 [ML323]
